# Measurements reported in patent US9951035B2, “Selective matrix metalloproteinase inhibitors” (University of Notre Dame du Lac, priority 2014, dated 2018).
# “And” between values parts separate entries of the source, which are not always exact repeats. Identical values can stand only once. “Also recorded” adds a separate entry of the source. Counter-ions that a name gives are not always drawn. Like-named read-outs stand apart in the source and are kept apart here.
# Assays:
# ADAM9 = ADAM9 (Homo sapiens (Human), UniProt Q13443); assay: Enzyme inhibition studies, ADAM9; assay type: biochemical
# Chain of ADAM9 (Q13443 206-697): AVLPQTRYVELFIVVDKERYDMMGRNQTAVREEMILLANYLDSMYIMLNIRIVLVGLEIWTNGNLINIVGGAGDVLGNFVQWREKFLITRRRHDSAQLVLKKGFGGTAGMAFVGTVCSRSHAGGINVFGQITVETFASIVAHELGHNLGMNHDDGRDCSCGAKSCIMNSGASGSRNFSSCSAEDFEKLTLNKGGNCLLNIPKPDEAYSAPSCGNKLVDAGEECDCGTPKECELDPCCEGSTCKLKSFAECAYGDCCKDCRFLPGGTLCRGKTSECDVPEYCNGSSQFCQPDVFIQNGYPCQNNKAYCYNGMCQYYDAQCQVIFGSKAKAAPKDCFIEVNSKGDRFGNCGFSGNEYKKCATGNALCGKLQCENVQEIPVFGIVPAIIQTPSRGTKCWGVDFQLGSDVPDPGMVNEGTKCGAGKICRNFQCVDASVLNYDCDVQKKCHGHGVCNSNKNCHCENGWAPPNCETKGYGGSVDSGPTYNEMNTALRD
# ADAM10 = ADAM10 (Homo sapiens (Human), UniProt O14672); assay: Enzyme inhibition studies, ADAM10; assay type: biochemical
# Chain of ADAM10 (O14672 214-672): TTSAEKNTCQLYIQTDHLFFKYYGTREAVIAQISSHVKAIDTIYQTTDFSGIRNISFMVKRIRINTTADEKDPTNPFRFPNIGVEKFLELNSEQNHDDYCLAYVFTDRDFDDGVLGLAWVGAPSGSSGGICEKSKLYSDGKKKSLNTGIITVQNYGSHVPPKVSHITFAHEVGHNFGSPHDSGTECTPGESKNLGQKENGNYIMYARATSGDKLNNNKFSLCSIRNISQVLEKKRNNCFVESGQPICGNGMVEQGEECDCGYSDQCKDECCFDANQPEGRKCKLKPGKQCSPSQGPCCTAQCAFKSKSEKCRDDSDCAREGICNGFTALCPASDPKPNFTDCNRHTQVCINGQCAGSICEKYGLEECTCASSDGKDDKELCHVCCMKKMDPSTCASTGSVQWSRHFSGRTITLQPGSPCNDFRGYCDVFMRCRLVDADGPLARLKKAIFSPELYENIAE
# MMP-2 = MMP-2 (Homo sapiens (Human), UniProt P08253); assay: Enzyme inhibition studies, MMP-2; assay type: biochemical; settings: for Ki: slow-binding, Ki calculated from koff/kon, read-out: Ki
# Chain of MMP-2 (P08253 110-660): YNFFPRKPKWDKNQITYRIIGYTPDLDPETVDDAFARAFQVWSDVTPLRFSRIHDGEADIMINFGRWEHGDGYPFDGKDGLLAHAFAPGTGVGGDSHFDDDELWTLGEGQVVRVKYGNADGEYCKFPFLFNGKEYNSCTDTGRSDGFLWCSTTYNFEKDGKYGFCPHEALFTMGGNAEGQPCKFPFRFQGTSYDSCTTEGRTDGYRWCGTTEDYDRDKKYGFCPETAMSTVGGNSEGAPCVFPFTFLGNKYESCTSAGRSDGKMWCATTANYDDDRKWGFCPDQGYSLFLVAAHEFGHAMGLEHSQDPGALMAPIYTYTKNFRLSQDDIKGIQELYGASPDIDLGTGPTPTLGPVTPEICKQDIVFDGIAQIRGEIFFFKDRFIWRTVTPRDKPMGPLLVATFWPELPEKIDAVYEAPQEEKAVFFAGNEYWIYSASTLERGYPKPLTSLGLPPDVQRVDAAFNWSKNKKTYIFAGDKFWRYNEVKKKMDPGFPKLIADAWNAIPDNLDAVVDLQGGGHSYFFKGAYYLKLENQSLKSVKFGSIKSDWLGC
# MMP-9 = MMP-9 (Homo sapiens (Human), UniProt P14780); assay: Enzyme inhibition studies, MMP-9 catalytic domain; assay type: biochemical; settings: for residence time: reciprocal of koff
# Chain of MMP-9 (P14780 107-444): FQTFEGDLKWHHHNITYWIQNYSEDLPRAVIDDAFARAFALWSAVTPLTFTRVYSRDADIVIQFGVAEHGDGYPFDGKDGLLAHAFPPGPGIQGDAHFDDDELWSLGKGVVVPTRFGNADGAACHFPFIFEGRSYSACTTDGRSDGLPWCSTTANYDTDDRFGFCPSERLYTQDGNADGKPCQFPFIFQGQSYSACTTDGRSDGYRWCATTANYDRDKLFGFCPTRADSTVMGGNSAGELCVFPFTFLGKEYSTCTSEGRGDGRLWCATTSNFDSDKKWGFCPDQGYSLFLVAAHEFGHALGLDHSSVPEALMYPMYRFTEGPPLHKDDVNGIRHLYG
# MMP-14 = MMP-14 (Homo sapiens (Human), UniProt P50281); assay: Enzyme inhibition studies, MMP-14 catalytic domain; assay type: biochemical
# MMP-1 = MMP-1 (Homo sapiens (Human), UniProt P03956); assay: Enzyme inhibition studies, MMP-1 catalytic domain; assay type: biochemical
# Chain of MMP-1 (P03956 98-276): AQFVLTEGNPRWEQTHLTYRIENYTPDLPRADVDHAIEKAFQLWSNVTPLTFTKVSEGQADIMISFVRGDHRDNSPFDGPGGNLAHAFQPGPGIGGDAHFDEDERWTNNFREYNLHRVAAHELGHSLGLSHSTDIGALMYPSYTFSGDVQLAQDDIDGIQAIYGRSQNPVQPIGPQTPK
# MMP-3 = MMP-3 (Homo sapiens (Human), UniProt P08254); assay: Enzyme inhibition studies, MMP-3 catalytic domain; assay type: biochemical; settings: at 100 μM
# Chain of MMP-3 (P08254 100-272): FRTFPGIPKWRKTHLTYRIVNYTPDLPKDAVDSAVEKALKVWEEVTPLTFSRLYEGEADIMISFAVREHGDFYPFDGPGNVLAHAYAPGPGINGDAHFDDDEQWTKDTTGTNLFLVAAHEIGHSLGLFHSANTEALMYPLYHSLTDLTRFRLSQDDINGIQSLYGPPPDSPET
# MMP-7 = MMP-7 (Homo sapiens (Human), UniProt P09237); assay: Enzyme inhibition studies, MMP-7; assay type: biochemical
# Chain of MMP-7 (P09237 95-267): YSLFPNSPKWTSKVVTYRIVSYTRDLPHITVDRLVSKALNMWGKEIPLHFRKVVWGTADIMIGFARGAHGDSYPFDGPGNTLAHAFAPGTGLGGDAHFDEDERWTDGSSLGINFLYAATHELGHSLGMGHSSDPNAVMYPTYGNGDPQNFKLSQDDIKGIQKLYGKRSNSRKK
# MMP-8 = MMP-8 (Homo sapiens (Human), UniProt P22894); assay: Enzyme inhibition studies, MMP-8 catalytic domain; assay type: biochemical
# Chain of MMP-8 (P22894 100-262): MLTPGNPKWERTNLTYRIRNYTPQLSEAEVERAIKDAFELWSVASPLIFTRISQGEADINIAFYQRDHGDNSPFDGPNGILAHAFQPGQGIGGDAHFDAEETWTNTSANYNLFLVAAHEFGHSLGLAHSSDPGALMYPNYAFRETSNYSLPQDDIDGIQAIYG
# [1] = Stability in buffers of the kinetic assays; assay type: physicochemical
# From the text: Human recombinant active MMP-2 and MMP-7, and the catalytic domains of MMP-3 and MMP-14/MT1-MMP were purchased from EMD Chemicals, Inc. (San Diego, Calif., USA); human recombinant catalytic domains of MMP-1, MMP-8, and MMP-9 were purchased from Enzo Life Sciences, Inc. (Farmingdale, N.Y., USA); human recombinant active ADAM9 and ADAM10 were purchased from R&D Systems (Minneapolis, Minn., USA). Fluorogenic substrates MOCAc-Pro-Leu-Gly-Leu-A2pr(Dnp)-Ala-Arg-NH2 (for MMP-2, MMP-7, MMP-9 and MMP-14) and MOCAc-Arg-Pro-Lys-Pro-Val-Glu-Nva-Trp-Arg-Lys(Dnp)-NH2 (for MMP-3) were purchased from Peptides International (Louisville, Ky., USA); Mca-KPLGL-Dpa-AR-NH2 (for MMP-1, MMP-8 and ADAM10) and Mca-PLAQAV-Dpa-RSSSR-NH2 (for ADAM9) were purchased from R&D Systems (Minneapolis, Minn., USA). […] Inhibitor stock solutions (10 mM) were prepared fresh in DMSO before enzyme inhibition assays. We followed the same methodology for enzyme inhibition studies as reported by Page-McCaw et al. (Nat. Rev. Mol. Cell Biol. 2007, 8, 221-233). Enzyme inhibition studies were carried out using a Cary Eclipse fluorescence spectrophotometer (Varian, Walnut Creek, Calif., USA). Compounds 4, 5, 6 and 7 were stable in the buffers that were used in the kinetic assays.
# [2] = mouse, in vivo, iv, 5 mg/kg
# Description: (§1) Mice (male CD-1, 6-7 weeks old, ˜30 g body weight, specific pathogen free) were purchased from Charles River Laboratories, Inc. (Wilmington, Mass., USA).
# (§2) Samples were analyzed by ultraperformance liquid chromatography (UPLC)/(+)electrospray ionization (ESI)-multiple-reaction monitoring (MRM) with a reversed phase C18 column (Acclaim® RSLC 120 C18, 2.2 μm, 120 Å, 2.1×100 mm, Dionex, Sunnyvale, Calif., USA).
# (§3) Quantification of the compounds in plasma and brain was obtained using peak-area ratios of the compounds to the internal standard, and the linear-regression parameters obtained from the calibration curves.
# in vivo = settings: male, CD-1, mouse, iv, 5 mg/kg
# Description: as §1, §2, §3
# physchem = settings: water, thermodynamic from solid
# [3] = Pharmacokinetics and brain distribution after single iv dose; settings: for crossing of the blood-brain barrier: in words
# Description: as §1, §2, §3
# [4] = catalytic domain, slow-binding, Ki from koff/kon, read-out: Ki
# [5] = 2 min after 5 mg/kg single iv, mice
# [6] = 5 min after 5 mg/kg single iv, mice
# [7] = 10 min after 5 mg/kg single iv, mice
# [8] = 30 min after 5 mg/kg single iv, mice
# [9] = 60 min after 5 mg/kg single iv, mice
# [10] = 90 min after 5 mg/kg single iv, mice
# [11] = male, CD-1, mouse, in vivo, 5 mg/kg
# [12] = plasma, 5 mg/kg single iv, mice
smiles,measurement,setting,value
"O=S(=O)(CC1CS1)c1ccc(Oc2ccccc2)cc1 (stereo not shown) [Compound 1, reference compound]",inhibition at 20 µM,"ADAM9; at 20 μM, read-out: Inhibition",36%
same,inhibition at 20 µM,"ADAM10; at 20 μM, read-out: Inhibition",34%
"NCc1nc(-c2ccc(Oc3ccc(S(=O)(=O)CC4CS4)cc3)cc2)no1 (stereo not shown) [Compound 4, (3-(4-(4-((Thiiran-2-ylmethyl)sulfonyl)phenoxy)phenyl)-1,2,4-oxadiazol-5-yl)methanamine.HCl salt]",kon,MMP-2,521 ± 22 M⁻¹ s⁻¹
same,koff,MMP-2; read-out: 10^3 koff,0.33 ± 0.027 s⁻¹
same,residence time,MMP-2; reciprocal of koff,50.5 ± 4.1 min
same,Ki,MMP-2,630 ± 60 nM
same,kon,MMP-9,32 ± 2.3 M⁻¹ s⁻¹
same,Ki,MMP-9; [4],34000 nM
same,koff,MMP-9; read-out: 10^3 koff,1.1 ± 0.03 s⁻¹
same,residence time,MMP-9,15.2 ± 0.4 min
same,residence time,MMP-9; read-out: residence time,15.2 to 47.4 min
same,kon,MMP-14,121 ± 11 M⁻¹ s⁻¹
same,Ki,MMP-14; [4],9400 nM
same,koff,MMP-14; read-out: 10^3 koff,1.14 ± 0.09 s⁻¹
same,residence time,MMP-14; reciprocal of koff,14.6 ± 1.1 min
same,inhibition at 100 µM,MMP-1,8%
same,inhibition at 100 µM,MMP-3,17%
same,inhibition at 100 µM,MMP-7,8%
same,inhibition at 50 µM,MMP-8,24%
same,inhibition at 100 µM,ADAM9; at 100 μM,5%
same,inhibition at 100 µM,ADAM10; at 100 μM,1%
same,stability in the buffers used in the kinetic assays,[1],stable
same,AUC0-last,[2],108 pmol·min/mg
same,AUC0-∞,[2],108 pmol·min/mg
same,AUCbrain/AUCplasma,[2],0.138
same,AUC(0-inf),in vivo,13.1 µM·h
same,AUC(0-t),in vivo,13 µM·h
same,Vd,in vivo,0.0213 L/kg
same,clearance,in vivo,15.8 mL/min/kg
same,solubility,physchem,610 µg/mL
same,clearance as % of hepatic blood flow,"[3]; 5 mg/kg single iv, mice",19%
same,Brain concentration,[3]; [5],9.76±7.24 pmol/mg tissue
same,Plasma concentration,[3]; [5],62400 ± 61600 nM
same,Brain concentration,[3]; [6],5.98 ± 2.94 pmol/mg tissue
same,Plasma concentration,[3]; [6],2190 ± 90 nM
same,Brain concentration,[3]; [7],3.27 ± 0.14 pmol/mg tissue
same,Plasma concentration,[3]; [7],2140 ± 1510 nM
same,Brain concentration,[3]; [8],0.249 ± 0.127 pmol/mg tissue
same,Plasma concentration,[3]; [8],97 ± 90 nM and 97 ± 92 nM
same,Brain concentration,[3]; [9],0.0253 ± 0.0221 pmol/mg tissue
same,Plasma concentration,[3]; [9],86.3 ± 30.3 nM
same,Brain concentration,[3]; [10],0.00548 ± 0.00476 pmol/mg tissue
same,Plasma concentration,[3]; [10],71.6 ± 50 nM
same,Plasma concentration,"[3]; 120 min after 5 mg/kg single iv, mice",31.8 ± 31.1 nM
same,Plasma concentration,"[3]; 240 min after 5 mg/kg single iv, mice",14.9 ± 12.9 nM
same,crossing of the blood-brain barrier,[3],cross the blood-brain barrier
"CC(=O)NCc1ccc(Oc2ccc(S(=O)(=O)CC3CS3)cc2)cc1 (stereo not shown) [Compound 6, N-(4-(4-((Thiiran-2-ylmethyl)sulfonyl)phenoxy)benzyl)acetamide]",Ki,MMP-2,230 nM and 234 nM
same,inhibition at 50 µM,MMP-9; at 50 μM,23%
same,Inhibition,"MMP-9; at 50 μM, listed as ND-378",Ki (MMP-9) 23% inhibition at 50 μM
same,inhibition at 50 µM,MMP-14; at 50 μM,23%
same,Inhibition,"MMP-14; at 50 μM, listed as ND-378",Ki (MMP-14) 23% inhibition at 50 μM
same,inhibition at 100 µM,MMP-1,37%
same,Inhibition,"MMP-1; at 100 μM, listed as ND-378",Ki (MMP-1) 37% inhibition at 100 μM
same,inhibition at 100 µM,MMP-3,14%
same,Inhibition,MMP-3; listed as ND-378,Ki (MMP-3) 14% inhibition at 100 μM
same,inhibition at 100 µM,MMP-7,5%
same,Inhibition,"MMP-7; at 100 μM, listed as ND-378",Ki (MMP-7) 4.7% inhibition at 100 μM
same,Ki,"MMP-8; Ki, catalytic domain, linear noncompetitive or linear competitive mechanism as footnoted",690 nM and 692 nM
same,inhibition at 100 µM,ADAM9; at 100 μM,31%
same,Inhibition,"ADAM9; at 100 μM, listed as ND-378",Ki (ADAM-9) 31% inhibition at 100 μM
same,inhibition at 100 µM,ADAM10; at 100 μM,8%
same,Inhibition,"ADAM10; at 100 μM, listed as ND-378",Ki (ADAM-10) 8% inhibition at 100 μM
same,stability in the buffers used in the kinetic assays,[1],stable
same,AUC0-last,[2],66.5 pmol·min/mg
same,AUC0-∞,[2],67.2 pmol·min/mg
same,AUC(0-inf),in vivo,7.28 µM·h
same,AUC(0-t),in vivo,7.25 µM·h
same,Vd,in vivo,0.329 L/kg
same,clearance,in vivo,30.3 mL/min/kg
same,solubility,physchem,25 µg/mL
same,clearance as % of hepatic blood flow,"[3]; 5 mg/kg single iv, mice",35%
same,time brain levels above Ki for MMP-2,"[3]; 5 mg/kg single iv, mice",30 min
same,time plasma levels above Ki for MMP-2,"[3]; 5 mg/kg single iv, mice",30 min
same,Brain concentration,[3]; [5],5.98±1.48 pmol/mg tissue
same,Plasma concentration,[3]; [5],35000 ± 7700 nM
same,Brain concentration,[3]; [6],4.90 ± 4.81 pmol/mg tissue
same,Brain concentration,[3]; [7],0.954 ± 0.473 pmol/mg tissue
same,Brain concentration,[3]; [8],0.231 ± 0.122 pmol/mg tissue
same,Brain concentration,[3]; [9],0.0544 ± 0.0539 pmol/mg tissue
same,Brain concentration,[3]; [10],0.0263 ± 0.0228 pmol/mg tissue
same,t1/2α,"[3]; brain, 5 mg/kg single iv, mice",2.89 min
same,t1/2β,"[3]; brain, 5 mg/kg single iv, mice",19.1 min
same,crossing of the blood-brain barrier,[3]; listed as ND-378,cross the blood-brain barrier; also recorded: crosses the BBB
same,concentration at 2 min,[3]; [11],35000 ± 7690 nM
same,concentration at 5 min,[3]; [11],20300 ± 2800 nM
same,concentration at 10 min,[3]; [11],14100 ± 5000 nM
same,concentration at 30 min,[3]; [11],1640 ± 480 nM
same,concentration at 60 min,[3]; [11],97.9 ± 6.5 nM
same,concentration at 90 min,[3]; [11],82.7 ± 26.2 nM
same,concentration at 120 min,[3]; [11],29.7 ± 16.8 nM
same,concentration at 240 min,[3]; [11],19.3 ± 3.7 nM
same,Kp,"[3]; male, CD-1, mouse, in vivo, iv, 5 mg/kg",0.154
same,t1/2α,[3]; [12],6.31 min
same,t1/2β,[3]; [12],86.6 min
